These are literature values, as cited in patent publication US20260053764A1, “COMPOSITION FOR PREVENTING DETERIORATION IN COGNITIVE FUNCTION AND/OR IMPROVING COGNITIVE FUNCTION” (PHARMA FOODS INTERNATIONAL CO., LTD., priority 2020, published 2026).

For the data set, the system named is cognitive function of elderly people. As to conditions: continuous ingestion for a year; cited from earlier work.

`CC1=C[C@H](O)CC(C)(C)[C@H]1/C=C/C(C)=C/C=C/C(C)=C/C=C/C=C(C)/C=C/C=C(C)/C=C/C1=C(C)C[C@@H](O)CC1(C)C` [lutein]: the “reasoning measured by the CNS Vital Signs examination method” value is on record as “no improvement”. As to `CC1=C(/C=C/C(C)=C/C=C/C(C)=C/C=C/C=C(C)/C=C/C=C(C)/C=C/C2=C(C)C[C@@H](O)CC2(C)C)C(C)(C)C[C@H](O)C1` [zeaxanthin], the “reasoning measured by the CNS Vital Signs examination method” value is recorded as “no improvement”.
